Data on 17 compounds can be found in patent publication US6890727B2, “Diagnostic assay for Alzheimer's disease: assessment of Aβ abnormalities” (The General Hospital Corporation, priority 1994, dated 2005).

Like-named read-outs stand apart in the source and are kept apart here.

A short description of experiment [1]: Zinc-induced tinctorial amyloid formation (Congo Red, polarized light). Type of experiment: physicochemical. As to conditions: Congo Red. Here is the method: FIGS. 8a and 8b are photographs showing zinc-induced tinctorial amyloid formation. […] The particle diameter is 40μ. […] The experiment was repeated with EDTA (50 μM) substituted for Zn^2+ and yielded no visible material.
The particle diameter is 40μ. […] The experiment was repeated with EDTA (50 μM) substituted for Zn^2+ and yielded no visible material.

Assay in experiment [2]: not given
The source holds these as a separate data set.

Experiment [3] can be described thus: 65Zn2+ binding to immobilized peptide (dot-blot, Scatchard competition analysis). The following applies: for zinc binding (in words): dot-blot or blot of tryptic digest probed with ^65Zn^2+. Here is the method: ^65Zn^2+ Binding Studies—Dissolved peptides (1.2 nMol, unless other wise stated) were dot-blotted onto polyvinylidene difluoride membrane (0.2-μm pore size; Pierce Chemical Co.), washed twice with chelating buffer (200 μl×100 mM NaCl, 20 mM Tris-HCl, 1 mM EDTA, pH 7.4), then five times with blocking buffer (200 μl×100 mM NaCl, 20 mM Tris-HCl, 1 mM MnCl2, pH 7.4), and then incubated (60 min, 20° C.) with ^65Zn (unless otherwise stated 130,000 cpm, […] ^65ZnCl2 in 200 μl of blocking buffer±competing metal ion chloride). The dot-blot was then washed with blocking buffer (5×200 μl), the dot excised, placed in a test tube, and assayed by γ-counting (11% efficiency). The equilibration volume for stoichiometry estimates was regarded as 6×200 μl. The 214 nm UV absorbance of the unbound flow-through was assayed to determine the total amount of peptide remaining bound onto the membrane. […] To alter the pH, the ^65Zn incubation was carried out in the presence of 100 mM buffer: MOPS (pH 6.5-7.0), MES (pH 5.0-6.0), acetate (pH 3.5-4.5). The dot-blot apparatus was washed with detergent and EDTA (50 mM) then rinsed and siliconized between use.
Aliquots of Aβ were incubated (60 min) with ^65Zn^2+ in the presence of varying concentrations of unlabeled Zn^2+ (0.01-50 μM total). Values shown are means±S.D., n≧3. […] (FIG. 1b) depicts specificity of the Zn^2+ binding site for various metals. Aβ was incubated (60 min) with ^65 Zn^2+ (157 nM, 138,000 cpm) and competing unlabeled metal ions (50 μM total). […] Percent binding of total counts ^65Zn^2+/min added is corrected for the amounts (in nanomoles) of peptides adhering to the membrane. […] 157 nM ^65Zn (138,000 cpm) is used in this experiment to probe immobilized peptide (1.6 nmol).

Assay in experiment [4]: as above
As to conditions: 74 nM ^65Zn^2+, corrected for peptide on membrane.

Experiment [5] addresses T1, Aβ (Homo sapiens, UniProt P05067).
T1 construct: purchased Sigma; Bachem (results also replicated with peptide from the Keck Laboratory, Yale); host or cells: chemical synthesis
The experiment in a line: G50 gel filtration chromatography of Aβ in presence of metal ions or EDTA. As to conditions: metal ion 25 μM. Here is the method: Aβ was stored in aliquots of 0.52 mg/ml in water at −20° C., then kept at 4° C. when thawed. Reagents were mixed without vortex mixing. The incubated Aβ was directly applied to a G50 SF (Pharmacia, Uppsala, Sweden) column (Bio-Rad Econo-Column, 30×0.7 cm) pre-equilibrated with metal salt solution or EDTA (50 μM) in TBS at 20° C. and eluted at 8 ml/h (Wiz peristaltic pump, Isco, Lincoln, Nebr.). Absorbance was measured at 254 and 214 nm (Type 6 optical unit, Isco). The amount of Aβ eluting at various peaks was estimated from the area under the curve. […] Because the sample eluted in a volume of approximately 15 ml, the average concentration of the peptide on the column was 0.8 μM.
To study the effects of protein blocking upon adsorption of β to the chromatography column, a Sephadex G50 SF column which had been characterized previously for Aβ behavior was eluted with 3% bovine serum albumin (BSA) in TBS (50 ml) and equilibrated with non-BSA-containing buffer, subsequent to repeating the Aβ experiments.
The elution points of molecular mass standards and relative assignments of Aβ peak elutions are indicated. Mass standards were blue dextran (2×10^6 kDa, V0=void volume), BSA (66 kDa), carbonic anhydrase (29 kDa), cytochrome c (12.4 kDa), and aprotinin (6.5 kDa). The mass of Aβ is 4.3 kDa. […] Data for experiments performed in the presence of copper were taken from 214 nm readings and corrected for comparison.
For orientation: Size exclusion chromatography separates by hydrodynamic size, large species first.

Experiment [6] relates to trypsin. The experiment in a line: Tryptic digestion of Aβ after incubation with Zn2+. The following applies: increasing zinc concentrations. Format: biochemical. Here is the method: Tryptic Digestion of Aβ-Aβ1-40 (13.9 μg) was incubated with Zn^2+ ([…] in blocking buffer, 1 h, 37° C.) and then digested with trypsin (12 ng, 3 h, 37° C.). The reaction was stopped by adding SDS sample buffer containing phenylmethylsulfonyl fluoride (1 mM), boiling the samples (5 min), and applying the samples to Tris/Tricine gel electrophoresis and transfer. The blot was washed with EDTA, Coomassie-stained, incubated with ^65Zn^2+, individual bands were excised, assayed for ^65Zn^2+ binding, and N-terminal sequenced to confirm the identity of the digestion products. The effects of Zn^2+ (up to 100 μM in TBS) on the activity of trypsin, itself, were assayed by assay of Z-Arg-amido-4-methylcoumarin (Sigma) fluorescent cleavage product and determined to be negligible.
(FIG. 4a) depicts a blot of tryptic digests of Aβ (13.9 μg) after incubation with increasing concentrations of zinc (lane labels, in micromolar), stained by Coomassie Blue. […] The migration of the low molecular size markers (STD) are indicated (in kilodaltons) on the right. (FIG. 4b) depicts ^65Zn^2+ binding to Aβ tryptic digestion products. The blot in 4a was incubated with ^65Zn^2+, the visible bands excised, and the bound counts for each band determined.

T1 sequence (P05067 672-711): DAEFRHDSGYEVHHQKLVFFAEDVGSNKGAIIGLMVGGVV

For the compound “rat Aβ1-40: rat/mouse species of Aβ1-40; Arg→Gly, Tyr→Phe, His→Arg at positions 5, 10 and 13 (DAEFGHDSGFEVRHQKLVFFAEDVGSNKGAIIGLMVGGVV; Amyloid-beta protein 40; UniProt P08592 672-711, looked up)”, the “Zn^2+ concentration inducing amyloid by tinctorial criteria” value in experiment [1] was ≥ 10 µM. The “peptide aggregated into >0.2μ particles” value (EDTA, higher peptide concentrations) was “≈ 15%”. Also, where the note is “EDTA, peptide 0.8 μM”, the “peptide aggregated into >0.2μ particles” value was “no detectable aggregation”. Besides, where the note is “Zn^2+ 25 μM, peptide 0.8 μM”, the “peptide aggregated into >0.2μ particles” value was “no aggregation”. In addition, the “peptide aggregated into >0.2μ particles” value (Zn^2+ 25 μM, peptide 4 μM) was 25%. Further, under “peptide 1.6 μM”, the “zinc concentration at which aggregation was observed” value was determined as 25 µM and the “zinc concentration up to which the peptide remains stable” value is reported as “up to 10 μM”. For the same compound, in experiment [2] (EDTA, peptide 1.6 μM), the “proportion of particles >0.1μ” value was found to be 36%, the “proportion of particles >0.22μ” value was determined as 27% and the “proportion of particles >0.65μ” value is listed as 25%. In addition, in experiment [2] (Zn^2+ 25 μM vs EDTA), the “increase of proportion of >0.1μ particles following incubation with Zn^2+” value came out at 20% and the “increase of proportion of >0.22μ particles following incubation with Zn^2+” value came out at 30%. Moreover, the “proportion of particles >0.65μ” value in experiment [2] (Zn^2+ 25 μM, peptide 1.6 μM) is reported as “increased only slightly”.
Turning to Aβ1-28: fragment of Aβ, residues 1-28, in experiment [3], the “zinc binding (in words)” value is “clearly binds zinc”. Besides, the “^65Zn^2+ binding compared with Aβ1-40” value in experiment [4] is listed as 30 % of Bmax.
For `[Ca+2]` [Ca^2+], the “reduction in eluted peptide” value in experiment [5] was 60%.
Consider `[Cu+2]` [Cu^2+, copper], for which the “effect on eluted Aβ species (monomer, dimer, polymer)” value in experiment [5] was “dramatic increase in Aβ dimerization”.
In the case of `NC(CO)(CO)CO` [Tris], the “abolition of ^65Zn^2+ binding to Aβ” value is listed as “≈ 50%” in experiment [3] (Tris 150 mM) and “≈ 95%” in experiment [3] (Tris 500 mM).
“Aβ6-40: 3.6 kDa tryptic digestion product of Aβ1-40”: the “zinc binding (in words)” value in experiment [3] is on record as “binds zinc”. The “effect of zinc on rate of tryptic digestion of the peptide” value in experiment [6] is reported as “is inhibited by the presence of zinc”.
In the case of “25-35: Aβ fragment covering a region of the carboxyl terminus, residues 25-35 (GSNKGAIIGLM; Amyloid-beta protein 40; UniProt P05067 696-706, looked up, fragment)”, in experiment [3], the “zinc binding (in words)” value is “unable to bind zinc”.
For `[Fe+2]` [Fe^2+], the “total Zn^2+ concentration with similar or comparable effect on Aβ chromatography” value (from here on “total Zn^2+ concentration”) in experiment [5] was ~10 µM.
As for “gln11: Aβ1-28 where residue 11 is glutamine (DAEFRHDSGYQVHHQKLVFFAEDVGSNK; Amyloid-beta protein 40; UniProt P05067 672-699, looked up, variant E11Q)”, in experiment [3], the “zinc binding (in words)” value is recorded as “does not interfere with ^65Zn^2+ binding”.
On to `[Ba+2]` [Ba^2+], for which the “reduction in eluted peptide” value in experiment [5] is listed as 60%.
In the case of `[Co+2]` [Co^2+], in experiment [5], the “total Zn^2+ concentration” value is ~10 µM.
For `[Mg+2]` [Mg^2+], the “reduction in eluted peptide” value in experiment [5] is 60%.
Take “Aβ17-40: 2.1 kDa tryptic digestion product of Aβ1-40, equivalent to post-secretase carboxyl-terminal product (LVFFAEDVGSNKGAIIGLMVGGVV; Amyloid-beta protein 40; UniProt P05067 688-711, looked up, fragment)”: the “zinc binding (in words)” value in experiment [3] is on record as “does not bind zinc”. The “effect of zinc on rate of tryptic digestion of the peptide” value in experiment [6] is given as “is not inhibited by increasing zinc concentrations”.
For `[Pb+2]` [Pb^2+], in experiment [5], the “effect on eluted Aβ species (monomer, dimer, polymer)” value was “most strongly promotes the elution of the monomeric peptide, abolishing high order polymers” and the “total Zn^2+ concentration” value is ~0.4 µM.
With `[Ag+2]` [Ag^2+], in experiment [5], the “reduction in eluted peptide” value worked out at 60%.
For `[Al+3]` [Al^3+], the “total Zn^2+ concentration” value in experiment [5] is ~3 µM.
On the same count and under the same terms, for `[Ni+2]` [Ni^2+] the value was ~10 µM.
